Target: Protein phosphatase 1 catalytic subunit (PPP1CA)
Experiment: Inhibitory concentration against protein phosphatase 1 (PP1) was determined

## CC(C)C[C@@H](C(=O)O)N1C(=O)[C@@H]2[C@H](C1=O)[C@H]1CC[C@@H]2O1 [(S)-2-((1S,2R,6S,7R)-3,5-Dioxo-10-oxa-4-aza-tricyclo[5.2.1.0*2,6*]dec-4-yl)-4-methyl-pentanoic acid]
  IC50: > 1000 µM

## O=C(O)[C@@H](Cc1ccccc1)N1C(=O)[C@@H]2[C@H](C1=O)[C@H]1CC[C@@H]2O1 [(R)-2-((1S,2R,6S,7R)-3,5-Dioxo-10-oxa-4-aza-tricyclo[5.2.1.0*2,6*]dec-4-yl)-3-phenyl-propionic acid]
  IC50: > 1000 µM

## CC(C)C[C@H](C(=O)O)N1C(=O)[C@@H]2[C@H](C1=O)[C@H]1CC[C@@H]2O1 [(R)-2-((1S,2R,6S,7R)-3,5-Dioxo-10-oxa-4-aza-tricyclo[5.2.1.0*2,6*]dec-4-yl)-4-methyl-pentanoic acid]
  IC50: > 1000 µM

## O=C(O)CC[C@H](C(=O)O)N1C(=O)[C@@H]2[C@H](C1=O)[C@H]1CC[C@@H]2O1 [(R)-2-((1S,2R,6S,7R)-3,5-Dioxo-10-oxa-4-aza-tricyclo[5.2.1.0*2,6*]dec-4-yl)-pentanedioic acid]
  IC50: 95 µM

## O=C(O)[C@H](Cc1ccccc1)N1C(=O)[C@@H]2[C@H](C1=O)[C@H]1CC[C@@H]2O1 [(S)-2-((1S,2R,6S,7R)-3,5-Dioxo-10-oxa-4-aza-tricyclo[5.2.1.0*2,6*]dec-4-yl)-3-phenyl-propionic acid]
  IC50: > 1000 µM

Source: BindingDB's records for doi:10.1016/s0960-894x(01)00594-7 (The University of Newcastle, 2001)
